{"source": "paper PMC5129256", "about": "(International Journal of Environmental Research and Public …, 2016)", "key": {"LMH cells [1]": {"tested_on": "LMH cells", "settings": "PrestoBlue; for Viability of LMH Cells (%) ±S.E.M.: 24 h"}, "LMH cells [2]": {"tested_on": "LMH cells", "settings": "for Viability of LMH Cells (%) ± SD / IC50 (%): MTT; for IC50 (%): from dose-response curves"}, "human skin fibroblasts": {"tested_on": "human skin fibroblasts", "settings": "MTS assay; cited from earlier work"}, "[3]": {"tested_on": "human adenocarcinoma cell line HT-29", "parameters": "method as in PMID 14642818", "settings": "HT-29, 20 mM (or 0.04%); cited from earlier work"}, "[4]": {"tested_on": "human colon adenocarcinoma cell line Caco-2", "parameters": "method as in ref 39 = [39]; 39. Olejnik A. Schmidt M. Wojnarowska K. Grajek W. The influence of toxic digestive metabolites on the proliferation and DNA damage of epithelial intestinal cells in vitro Food Sci. Technol. Qual. 200", "settings": "Caco-2, concentrations as low as 10^-6 M; cited from earlier work"}, "laboratory mice": {"tested_on": "laboratory mice", "settings": "mouse, in vivo; cited from earlier work"}}, "note": "Where two headings read alike, the source gives them in different places."}
{"smiles": "N", "note": "[Ammonium]", "values": [{"measurement": "Viability of LMH Cells (%) ±S.E.M.", "setting": "LMH cells [1]; 0.004%", "value": "99.7 ± 5.8", "unit": "%"}, {"measurement": "Viability of LMH Cells (%) ±S.E.M.", "setting": "LMH cells [1]; 0.008%", "value": "99.0 ± 10.1", "unit": "%"}, {"measurement": "Viability of LMH Cells (%) ±S.E.M.", "setting": "LMH cells [1]; 0.016%", "value": "100.2 ± 8.1", "unit": "%"}, {"measurement": "Viability of LMH Cells (%) ±S.E.M.", "setting": "LMH cells [1]; 0.063%", "value": "51.1 ± 7.1", "unit": "%"}, {"measurement": "Viability of LMH Cells (%) ±S.E.M.", "setting": "LMH cells [1]; 0.125%", "value": "24.6 ± 6.3", "unit": "%"}, {"measurement": "Viability of LMH Cells (%) ±S.E.M.", "setting": "LMH cells [1]; 0.25%", "value": "5.7 ± 1.1", "unit": "%"}, {"measurement": "Viability of LMH Cells (%) ±S.E.M.", "setting": "LMH cells [1]; 0.5%", "value": "4.6 ± 0.6", "unit": "%"}, {"measurement": "Viability of LMH Cells (%) ±S.E.M.", "setting": "LMH cells [1]; 1.0%", "value": "4.7 ± 0.7", "unit": "%"}, {"measurement": "IC50 (%)", "setting": "LMH cells [1]; 24 h exposure, from dose-response curves", "value": 0.07, "unit": "%"}, {"measurement": "Viability of LMH Cells (%) ±S.E.M.", "setting": "LMH cells [1]; […]", "value": "99.1 ± 4.9", "unit": "%"}, {"measurement": "Viability of LMH Cells (%) ± SD", "setting": "LMH cells [2]; 0.004%, 24 h", "value": "97.6 ± 4.3", "unit": "%"}, {"measurement": "Viability of LMH Cells (%) ± SD", "setting": "LMH cells [2]; 0.004%, 48 h", "value": "95.6 ± 2.9", "unit": "%"}, {"measurement": "Viability of LMH Cells (%) ± SD", "setting": "LMH cells [2]; 0.004%, 72 h", "value": "101.9 ± 5.0", "unit": "%"}, {"measurement": "Viability of LMH Cells (%) ± SD", "setting": "LMH cells [2]; 0.008%, 24 h", "value": "98.0 ± 3.0", "unit": "%"}, {"measurement": "Viability of LMH Cells (%) ± SD", "setting": "LMH cells [2]; 0.008%, 48 h", "value": "96.8 ± 1.3", "unit": "%"}, {"measurement": "Viability of LMH Cells (%) ± SD", "setting": "LMH cells [2]; 0.008%, 72 h", "value": "104.8 ± 2.6", "unit": "%"}, {"measurement": "Viability of LMH Cells (%) ± SD", "setting": "LMH cells [2]; 0.016%, 24 h", "value": "93.3 ± 2.8", "unit": "%"}, {"measurement": "Viability of LMH Cells (%) ± SD", "setting": "LMH cells [2]; 0.016%, 48 h", "value": "81.4 ± 5.2", "unit": "%"}, {"measurement": "Viability of LMH Cells (%) ± SD", "setting": "LMH cells [2]; 0.063%, 24 h", "value": "61.9 ± 2.0", "unit": "%"}, {"measurement": "Viability of LMH Cells (%) ± SD", "setting": "LMH cells [2]; 0.063%, 48 h", "value": "28.3 ± 1.3", "unit": "%"}, {"measurement": "Viability of LMH Cells (%) ± SD", "setting": "LMH cells [2]; 0.063%, 72 h", "value": "13.8 ± 1.2", "unit": "%"}, {"measurement": "Viability of LMH Cells (%) ± SD", "setting": "LMH cells [2]; 0.125%, 24 h", "value": "18.1 ± 0.8", "unit": "%"}, {"measurement": "Viability of LMH Cells (%) ± SD", "setting": "LMH cells [2]; 0.125%, 48 h", "value": "7.1 ± 0.8", "unit": "%"}, {"measurement": "Viability of LMH Cells (%) ± SD", "setting": "LMH cells [2]; 0.125%, 72 h", "value": "10.0 ± 1.3", "unit": "%"}, {"measurement": "Viability of LMH Cells (%) ± SD", "setting": "LMH cells [2]; 0.25%, 24 h", "value": "5.4 ± 0.1", "unit": "%"}, {"measurement": "Viability of LMH Cells (%) ± SD", "setting": "LMH cells [2]; 0.25%, 48 h", "value": "1.6 ± 0.2", "unit": "%"}, {"measurement": "Viability of LMH Cells (%) ± SD", "setting": "LMH cells [2]; 0.25%, 72 h", "value": "2.9 ± 0.1", "unit": "%"}, {"measurement": "Viability of LMH Cells (%) ± SD", "setting": "LMH cells [2]; 0.5%, 24 h", "value": "5.9 ± 0.2", "unit": "%"}, {"measurement": "Viability of LMH Cells (%) ± SD", "setting": "LMH cells [2]; 0.5%, 48 h", "value": "2.1 ± 0.2", "unit": "%"}, {"measurement": "Viability of LMH Cells (%) ± SD", "setting": "LMH cells [2]; 0.5%, 72 h", "value": "2.8 ± 0.2", "unit": "%"}, {"measurement": "Viability of LMH Cells (%) ± SD", "setting": "LMH cells [2]; 1.0%, 24 h", "value": "13.1 ± 0.1", "unit": "%"}, {"measurement": "Viability of LMH Cells (%) ± SD", "setting": "LMH cells [2]; 1.0%, 48 h", "value": "1.7 ± 0.2", "unit": "%"}, {"measurement": "Viability of LMH Cells (%) ± SD", "setting": "LMH cells [2]; 1.0%, 72 h", "value": "5.8 ± 0.1", "unit": "%"}, {"measurement": "IC50 (%)", "setting": "LMH cells [2]; 24 h exposure", "value": 0.08, "unit": "%"}, {"measurement": "IC50 (%)", "setting": "LMH cells [2]; 48 h exposure", "value": 0.04, "unit": "%"}, {"measurement": "IC50 (%)", "setting": "LMH cells [2]; 72 h exposure", "value": 0.02, "unit": "%"}, {"measurement": "Viability of LMH Cells (%) ± SD", "setting": "LMH cells [2]; […], 24 h", "value": "96.4 ± 1.2", "unit": "%"}, {"measurement": "Viability of LMH Cells (%) ± SD", "setting": "LMH cells [2]; […], 48 h", "value": "65.5 ± 4.0", "unit": "%"}, {"measurement": "Viability of LMH Cells (%) ± SD", "setting": "LMH cells [2]; […], 72 h", "value": "31.6 ± 2.1", "unit": "%"}, {"measurement": "IC50", "setting": "human skin fibroblasts", "value": 9.4, "unit": "mM"}, {"measurement": "effect on proliferation", "setting": "[3]", "value": "almost suppressed proliferation"}]}
{"smiles": "Oc1ccccc1", "note": "[Phenol]", "values": [{"measurement": "cytotoxicity (in words)", "setting": "LMH cells [2]", "value": "not cytotoxic"}, {"measurement": "cytotoxicity", "setting": "LMH cells [2]; chicken", "value": 85.5, "unit": "%"}, {"measurement": "cell proliferation and cell survival", "setting": "[4]", "value": 56, "unit": "%"}, {"measurement": "concentration reducing the respiratory rate by 50%", "setting": "laboratory mice", "value": 166, "unit": "ppm"}]}
